What was measured:
anti-αGal Ig [1] = assay: Removal of anti-αGal Ig from serum by αGal epitope on resin (Sepharose), measured by FACS; type: binding, human; details: epitope on resin (coupled to Sepharose)
Protocol: (§1) Antibodies. Blood was drawn from healthy normal volunteers. Plasma was separated by centrifugation and allowed to clot. Fibrin was removed and plasma was used immediately or stored in aliquots at −70° C. Rhesus monkey serum (California Regional Primate Research Center, Davis, Calif.) was obtained from blood drawn into vacutainer tubes and allowed to clot. After serum was separated by centrifugation, it was pooled, aliquoted and stored at −20° C. or −70° C. In some experiments, sera was heat-inactivated at 56° C. for 30 minutes to destroy complement hemolytic activity. Antibodies to the αGal epitope were affinity purified on an αGal-Sepharose column, which was prepared by coupling αGal-SH to maleimide-Sepharose (Pierce) through Michael addition chemistry at 10 mg/mL resin. Up to 20 mL pooled NHS […] was applied to a 2 mL volume of packed αGal-Sepharose. After the flow through was collected, the column was washed with 10-20 column volumes or until A280 reached baseline values and eluted with 0.1 M triethanolamine, pH 11.5 into tubes containing 1 M Tris, pH 8.0. The column was immediately washed with 10-20 volumes of phosphate-buffered saline (PBS). Fractions were assessed for protein concentration by Bradford assay. Peak fractions were pooled and dialyzed against PBS. […]

anti-αGal Ig [2] = assay: as above; type: binding, rhesus monkey; details: epitope on resin (coupled to Sepharose)
Protocol: as §1

OC[C@H]1O[C@H](O[C@H]2[C@@H](O)[C@@H](CO)O[C@@H](OCCOCCOCCS)[C@@H]2O)[C@H](O)[C@@H](O)[C@H]1O [αGal epitope, 2-[2-(2-thioethoxy)ethoxy]ethyl 3-O-(α-D-galactopyranosyl)-β-D-galactopyranoside]
removal of anti-αGal Ig from human serum (anti-αGal Ig [1]): > 95%
removal of anti-αGal Ig from normal rhesus monkey serum (anti-αGal Ig [2]): > 95%
